{"source": "patent US20190388387A1", "about": "“COMPOSITION FOR INHIBITING MYOFIBROSIS” (SUNTORY HOLDINGS LIMITED, priority 2017, published 2019)", "key": {"Acta2 gene": {"tested_on": "Acta2 gene", "experiment": "Fibrosis marker gene expression analysis (quantitative PCR), Acta2 gene", "assay_type": "cell-based, rat", "settings": "TGF β 1 ng/mL, 24 hours, Dunnett's test vs. TGF β(+), FIG. 2(a)", "description": "(§1) Gastrocnemius, soleus, plantaris muscle, tibialis anterior, extensor digitorum longus, and quadriceps were extracted from male Fischer 344 rats of 9 to 15 weeks old under anesthesia, and minced in phosphate buffered saline (PBS) (Life Technologies Corporation) on ice. The minced muscle tissue was enzymatically degraded by Protease (Sigma-Aldrich) at 37° C., and then centrifuged repeatedly, whereby the muscle satellite cells were isolated. The muscle satellite cells were suspended in Dulbecco's Modified Eagle Medium (DMEM) containing 10% fetal equine serum, and cultured for 24 hours. After culturing, centrifugation was performed again, and the deposited muscle satellite cells were seeded onto an 8-well slide glass (Thermo Fisher Scientific) to a density of 5×10^4 to 7×10^4 cells/mL in F-10 medium (Gibco) containing 20% bovine serum. After seeding, the muscle satellite cells were cultured for 72 hours or 120 hours. […] The cDNAs obtained by reverse transcription reaction was subjected to quantitative PCR in Step One Plus Real Time PCR System using TaqMan Fast Universal PCR Mastermix (Life Technologies Corporation). The expression levels of Colla1 gene and Acta2 gene as a myofibroblast marker were measured. For quantitative PCR, the cells were first maintained at 95° C. for 20 seconds, and then subjected to 40 cycles of reaction at 95° C. for 1 second and 60° C. for 20 seconds. […]"}, "[1]": {"tested_on": "rat skeletal muscle-derived muscle satellite cells", "experiment": "Morphological changes of muscle satellite cells to myofibroblasts under TGF β fibrosis induction (Masson's Trichrome staining)", "assay_type": "cell-based", "settings": "TGF β 1 ng/mL", "description": "Gastrocnemius, soleus, plantaris muscle, tibialis anterior, extensor digitorum longus, and quadriceps were extracted from male Fischer 344 rats of 9 to 15 weeks old under anesthesia, and minced in phosphate buffered saline (PBS) (Life Technologies Corporation) on ice. The minced muscle tissue was enzymatically degraded by Protease (Sigma-Aldrich) at 37° C., and then centrifuged repeatedly, whereby the muscle satellite cells were isolated. The muscle satellite cells were suspended in Dulbecco's Modified Eagle Medium (DMEM) containing 10% fetal equine serum, and cultured for 24 hours. After culturing, centrifugation was performed again, and the deposited muscle satellite cells were seeded onto an 8-well slide glass (Thermo Fisher Scientific) to a density of 5×10^4 to 7×10^4 cells/mL in F-10 medium (Gibco) containing 20% bovine serum. After seeding, the muscle satellite cells were cultured for 72 hours or 120 hours. The muscle satellite cells for tissue staining were cultured for 72 hours, and muscle satellite cells for genetic analysis were cultured for 120 hours to provide enough cells. In the case of the muscle satellite cells to be cultured for 120 hours, the F-10 medium containing 20% bovine serum was replaced 72 hours after seeding. After the culturing for 72 hours or 120 hours, the muscle satellite cells were cultured in a differentiation-inducing medium for 24 hours. The differentiation-inducing medium was a medium in which a TGF β (TGF-β) signal inhibitor, quercetin, or solvent was added in an amount shown in Table 1 to Dulbecco's Modified Eagle Medium (DMEM) containing 2% fetal equine serum. TGF β (Sigma-Aldrich) was used for fibrosis induction. The compound was added to the differentiation-inducing medium using HCl as solvent to a final concentration of 1 ng/mL. TGF β was added when a TGF β signal inhibitor or quercetin was added. The TGF β signal inhibitor was SB525334 (6-[2-tert-butyl-5-(6-methyl-pyridin-2-yl)-1H-imidazol-4-yl]-quinoxaline available from Wako Pure Chemical Industries, Ltd.). […]"}, "Colla1 gene": {"tested_on": "Colla1 gene", "experiment": "Fibrosis marker gene expression analysis (quantitative PCR), Colla1 gene", "assay_type": "cell-based, rat", "settings": "TGF β 1 ng/mL, 24 hours, FIG. 2(b)", "description": "as §1"}}, "data": [{"smiles": "O=c1c(O)c(-c2ccc(O)c(O)c2)oc2cc(O)cc(O)c12", "note": "[quercetin]", "values": [{"measurement": "expression of Acta2 gene", "setting": "Acta2 gene; quercetin 100 μM", "result": "significantly inhibited"}, {"measurement": "morphological changes of muscle satellite cells to myofibroblast-like cells", "setting": "[1]; quercetin 50 μM, 24 hours, vs. TGF β-added group, FIG. 1(d)", "result": "more inhibited"}, {"measurement": "morphological changes of muscle satellite cells to myofibroblasts", "setting": "[1]; quercetin 100 μM, 24 hours, vs. 50-μM quercetin-added group, FIG. 1(e)", "result": "stronger effect of inhibiting morphological changes"}, {"measurement": "expression of Colla1 gene", "setting": "Colla1 gene; quercetin 50 μM and 100 μM", "result": "inhibited in a concentration-dependent manner"}]}, {"smiles": "Cc1cccc(-c2[nH]c(C(C)(C)C)nc2-c2ccc3nccnc3c2)n1", "note": "[SB525334, 6-[2-tert-butyl-5-(6-methyl-pyridin-2-yl)-1H-imidazol-4-yl]-quinoxaline, reference compound]", "values": [{"measurement": "expression of Acta2 gene", "setting": "Acta2 gene; SB525334 1 μM", "result": "significantly inhibited"}, {"measurement": "TGF β-induced morphological changes of muscle satellite cells to myofibroblasts", "setting": "[1]; SB525334 1 μM, 24 hours in differentiation-inducing medium, FIG. 1(c)", "result": "clearly inhibited"}, {"measurement": "expression of Colla1 gene", "setting": "Colla1 gene; SB525334 1 μM, Dunnett's test vs. TGF β(+)", "result": "significantly inhibited"}]}]}
